Test results: PubChem BioAssay AID330 (DTP/NCI, 2004)
Inconclusive results and toxic doses are left out.

Tested on: P388 leukemia ip, CD2F1 mice, survival T/C
Experiment: NCI In Vivo Anticancer Drug Screen. Data for tumor model P388 Leukemia (intraperitoneal) in CD2F1 (CDF1) mice
Conditions: endpoint: median survival time, higher = longer survival
Procedure, shortened: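 Mice carrying the transplanted tumor received test compound or vehicle. Survival was recorded in each group, and the value is the treated-group measurement divided by that of the vehicle-treated control group.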

[1] = dose: 60.0 mg/kg/injection, schedule: Q01DX005 (ip), vehicle: saline with Tween-80
[2] = dose: 120.0 mg/kg/injection, schedule: Q01DX005 (ip), vehicle: saline with Tween-80
[3] = dose: 240.0 mg/kg/injection, schedule: Q01DX005 (ip), vehicle: saline with Tween-80
[4] = dose: 100.0 mg/kg/injection, schedule: Q01DX001 (ip), vehicle: Klucel (hydroxypropylcellulose) (HPC)
[5] = dose: 200.0 mg/kg/injection, schedule: Q01DX001 (ip), vehicle: Klucel (hydroxypropylcellulose) (HPC)
[6] = dose: 400.0 mg/kg/injection, schedule: Q01DX001 (ip), vehicle: Klucel (hydroxypropylcellulose) (HPC)
[7] = dose: 50.0 mg/kg/injection, schedule: Q01DX009 (ip), vehicle: saline with Tween-80
[8] = dose: 100.0 mg/kg/injection, schedule: Q01DX009 (ip), vehicle: saline with Tween-80
[9] = dose: 200.0 mg/kg/injection, schedule: Q01DX009 (ip), vehicle: saline with Tween-80
[10] = dose: 100.0 mg/kg/injection, schedule: Q04DX003 (ip), vehicle: saline with Tween-80
[11] = dose: 60.0 mg/kg/injection, schedule: Q01DX005 (ip), vehicle: Klucel (hydroxypropylcellulose) (HPC)
[12] = dose: 120.0 mg/kg/injection, schedule: Q01DX005 (ip), vehicle: Klucel (hydroxypropylcellulose) (HPC)
[13] = dose: 240.0 mg/kg/injection, schedule: Q01DX005 (ip), vehicle: Klucel (hydroxypropylcellulose) (HPC)
[14] = dose: 50.0 mg/kg/injection, schedule: Q01DX005 (ip), vehicle: saline with Tween-80
[15] = dose: 100.0 mg/kg/injection, schedule: Q01DX005 (ip), vehicle: saline with Tween-80
[16] = dose: 200.0 mg/kg/injection, schedule: Q01DX005 (ip), vehicle: saline with Tween-80
[17] = dose: 50.0 mg/kg/injection, schedule: Q01DX009 (ip), vehicle: Klucel (hydroxypropylcellulose) (HPC)
[18] = dose: 100.0 mg/kg/injection, schedule: Q01DX009 (ip), vehicle: Klucel (hydroxypropylcellulose) (HPC)
[19] = dose: 200.0 mg/kg/injection, schedule: Q01DX009 (ip), vehicle: Klucel (hydroxypropylcellulose) (HPC)
[20] = dose: 200.0 mg/kg/injection, schedule: Q04DX003 (ip), vehicle: saline with Tween-80
[21] = dose: 400.0 mg/kg/injection, schedule: Q04DX003 (ip), vehicle: saline with Tween-80
[22] = dose: 100.0 mg/kg/injection, schedule: Q01DX001 (ip), vehicle: saline with Tween-80
[23] = dose: 200.0 mg/kg/injection, schedule: Q01DX001 (ip), vehicle: saline with Tween-80
[24] = dose: 400.0 mg/kg/injection, schedule: Q01DX001 (ip), vehicle: saline with Tween-80

For COc1cccc(C2SCC(=O)N2c2nncs2)c1 (stereo unspecified), the T/C [1] was 100 % of control, the T/C [2] was 97 % of control and the T/C [3] was 104 % of control.

Cn1c(=O)n(CCn2c(=O)n(C)c3ccccc32)c2ccccc21 was tested, and the T/C [4] was 91 % of control, the T/C [5] was 92 % of control and the T/C [6] was 91 % of control.

CCOC(=O)c1cc(NC(C)=O)cn1C was tested, and the T/C [7] was 102 % of control, the T/C [8] was 104 % of control and the T/C [9] was 103 % of control.

In the case of C#C/C=C/CC1OC(CC)/C=C\C=C/CC1Cl (stereo unspecified), the T/C (dose: 2.0 mg/kg/injection, schedule: Q01DX009 (ip), vehicle: Klucel (hydroxypropylcellulose) (HPC)) is reported as 100 % of control, the T/C (dose: 4.0 mg/kg/injection, schedule: Q01DX009 (ip), vehicle: Klucel (hydroxypropylcellulose) (HPC)) is reported as 109 % of control and the T/C (dose: 8.0 mg/kg/injection, schedule: Q01DX009 (ip), vehicle: Klucel (hydroxypropylcellulose) (HPC)) is reported as 96 % of control. For the same compound, the T/C (dose: 16.0 mg/kg/injection, schedule: Q01DX009 (ip), vehicle: Klucel (hydroxypropylcellulose) (HPC)) was 104 % of control.

For O=C(O)c1cc(Br)c2ccccc2c1O, the T/C (dose: 25.0 mg/kg/injection, schedule: Q04DX003 (ip), vehicle: saline with Tween-80) was 100 % of control, the T/C (dose: 50.0 mg/kg/injection, schedule: Q04DX003 (ip), vehicle: saline with Tween-80) was 100 % of control and the T/C [10] was 100 % of control.

With O=c1[nH]c2ccccc2c(Oc2ccccc2)c1I the T/C [11] was 89 % of control, the T/C [12] was 92 % of control and the T/C [13] was 101 % of control.

For CN(C)/N=C1/CCCCC1C(O)(c1ccccc1)c1ccccc1 (stereo unspecified), the T/C [1] was 97 % of control.

Cc1ccccc1C(=O)NC1c2ccccc2Oc2ccccc21 was tested, and the T/C [14] was 100 % of control, the T/C [15] was 100 % of control and the T/C [16] was 100 % of control.

With CC1(C)OC2CC(=O)OCC23C1CC(=O)C1(C)C2=CC(=O)OC(c4ccoc4)C2(C)CCC13 (stereo unspecified) the T/C (dose: 0.5 mg/kg/injection, schedule: Q01DX009 (ip), vehicle: saline + alcohol) was 106 % of control, the T/C (dose: 1.0 mg/kg/injection, schedule: Q01DX009 (ip), vehicle: saline + alcohol) was 108 % of control and the T/C (dose: 2.0 mg/kg/injection, schedule: Q01DX009 (ip), vehicle: saline + alcohol) was 101 % of control. The T/C (dose: 4.0 mg/kg/injection, schedule: Q01DX009 (ip), vehicle: saline + alcohol) was 105 % of control.

With COc1nc(NC2OC(COC(C)=O)C(OC(C)=O)C(OC(C)=O)C2OC(C)=O)c(N=C(C)C(C)=O)c(=O)n1C (stereo unspecified) the T/C [1] was 99 % of control, the T/C [2] was 95 % of control and the T/C [3] was 95 % of control.

In the case of O=C(CCl)NNC1=Nc2ccc(Cl)cc2SC1, the T/C [1] is reported as 101 % of control, the T/C [2] is reported as 104 % of control and the T/C [3] is reported as 93 % of control.

With CC(C)(OCc1ccccc1)c1ccccc1P(c1ccccc1)c1ccccc1 the T/C [17] was 101 % of control, the T/C [18] was 101 % of control and the T/C [19] was 110 % of control.

In the case of CCN1COc2ccc3ccc4c(c3c2C1)CN(CC)CO4, the T/C (dose: 50.0 mg/kg/injection, schedule: Q01DX005 (ip), vehicle: Klucel (hydroxypropylcellulose) (HPC)) is reported as 101 % of control, the T/C (dose: 100.0 mg/kg/injection, schedule: Q01DX005 (ip), vehicle: Klucel (hydroxypropylcellulose) (HPC)) is reported as 101 % of control and the T/C (dose: 200.0 mg/kg/injection, schedule: Q01DX005 (ip), vehicle: Klucel (hydroxypropylcellulose) (HPC)) is reported as 102 % of control.

In the case of COC(=O)[C@H](C)C1OC(O)C=CC1=O (stereo partly specified), the T/C (dose: 6.25 mg/kg/injection, schedule: Q01DX001 (ip), vehicle: saline + Tween-80 + alcohol) is reported as 100 % of control, the T/C (dose: 12.5 mg/kg/injection, schedule: Q01DX001 (ip), vehicle: saline + Tween-80 + alcohol) is reported as 108 % of control and the T/C (dose: 25.0 mg/kg/injection, schedule: Q01DX001 (ip), vehicle: saline + Tween-80 + alcohol) is reported as 101 % of control. The T/C (dose: 50.0 mg/kg/injection, schedule: Q01DX001 (ip), vehicle: saline + Tween-80 + alcohol) was 101 % of control.

With COC(=O)NCN(Cc1ccccc1)C(=O)CCCCCN the T/C [1] was 104 % of control, the T/C [2] was 100 % of control and the T/C [3] was 98 % of control.

For CC1=CC(=O)C=CC1=Nc1ccc(N(C)C)cc1, the T/C (dose: 25.0 mg/kg/injection, schedule: Q01DX009 (ip), vehicle: saline with Tween-80) was 108 % of control and the T/C [7] was 109 % of control.

With CCc1c(O)c2c(n(C)c1=O)CC(C)(C)NC2=S the T/C [11] was 100 % of control and the T/C [12] was 100 % of control.

In the case of COc1ccc(CC2C(=O)NC(C)C(=O)N(C)C3Cc4ccc(cc4)Oc4cc(ccc4OC(C)=O)CC(C(=O)NC(C)C(=O)NC(C)C(=O)N2C)N(C)C3=O)cc1 (stereo unspecified), the T/C (dose: 2.0 mg/kg/injection, schedule: Q01DX009 (ip), vehicle: none) is reported as 167 % of control.

C/C(=N/NC(=S)NNC(=S)N(C)c1ccccc1)c1nccc2ccccc12 was tested, and the T/C [14] was 102 % of control, the T/C [15] was 101 % of control and the T/C [16] was 104 % of control.

In the case of Clc1ccc(COCc2ccccc2Cn2ccnc2)cc1, the T/C [1] is reported as 95 % of control and the T/C [2] is reported as 99 % of control.

For CCOc1cc2cc(/C=N/OCC3CO3)c(Cl)nc2cc1OCC (stereo unspecified), the T/C (dose: 50.0 mg/kg/injection, schedule: Q01DX005 (ip), vehicle: suspension in saline) was 92 % of control, the T/C (dose: 100.0 mg/kg/injection, schedule: Q01DX005 (ip), vehicle: suspension in saline) was 92 % of control and the T/C (dose: 200.0 mg/kg/injection, schedule: Q01DX005 (ip), vehicle: suspension in saline) was 90 % of control.

With C=C(C)c1nc2c(=O)nc(N)nc-2n(O)c1C the T/C (dose: 37.5 mg/kg/injection, schedule: Q01DX009 (ip), vehicle: saline with Tween-80) was 99 % of control and the T/C (dose: 150.0 mg/kg/injection, schedule: Q01DX009 (ip), vehicle: saline with Tween-80) was 108 % of control.

O=C1NCC(CCl)O1 (stereo unspecified) was tested, and the T/C (dose: 60.0 mg/kg/injection, schedule: Q01DX005 (ip), vehicle: saline) was 100 % of control, the T/C (dose: 120.0 mg/kg/injection, schedule: Q01DX005 (ip), vehicle: saline) was 101 % of control and the T/C (dose: 240.0 mg/kg/injection, schedule: Q01DX005 (ip), vehicle: saline) was 102 % of control.

With CC(=O)NCCSc1nc(-c2ccccc2)c(-c2ccccc2)o1 the T/C [17] was 95 % of control, the T/C [18] was 104 % of control and the T/C [19] was 101 % of control.

C=CCOc1cc(=O)[nH]c2ccccc12 was tested, and the T/C [11] was 100 % of control, the T/C [12] was 97 % of control and the T/C [13] was 91 % of control.

CCCOn1nnc2ccccc21 was tested, and the T/C [10] was 99 % of control, the T/C [20] was 102 % of control and the T/C [21] was 107 % of control.

With O=C(CCSc1nc(-c2ccccc2)c(-c2ccccc2)o1)N1CCCCC1 the T/C [17] was 101 % of control, the T/C [18] was 101 % of control and the T/C [19] was 117 % of control.

CC(=O)OCC1OC(n2ccc3c(=O)n(C)c(=O)[nH]c32)C(OC(C)=O)C(OC(C)=O)C1OC(C)=O (stereo unspecified) was tested, and the T/C [22] was 92 % of control, the T/C [23] was 105 % of control and the T/C [24] was 108 % of control.

Cc1ccc(S(=O)(=O)C(CC(=O)CCN2CCCCC2)c2ccccc2)cc1 (stereo unspecified) was tested, and the T/C (dose: 50.0 mg/kg/injection, schedule: Q01DX009 (ip), vehicle: saline) was 102 % of control and the T/C (dose: 100.0 mg/kg/injection, schedule: Q01DX009 (ip), vehicle: saline) was 96 % of control.

CN1CCN2C(=O)CCC2c2cc(Cl)ccc21 (stereo unspecified) was tested, and the T/C [22] was 101 % of control, the T/C [23] was 101 % of control and the T/C [24] was 101 % of control.

In the case of CC(=O)n1ccc(=O)[nH]c1=O, the T/C [7] is reported as 87 % of control, the T/C [8] is reported as 96 % of control and the T/C [10] is reported as 100 % of control. The T/C [9] was 96 % of control, the T/C [20] was 96 % of control and the T/C [21] was 96 % of control.

In the case of C=C(C)C(=O)N/C(N)=N\C(N)=O, the T/C (dose: 50.0 mg/kg/injection, schedule: Q01DX005 (ip), vehicle: saline) is reported as 98 % of control, the T/C (dose: 100.0 mg/kg/injection, schedule: Q01DX005 (ip), vehicle: saline) is reported as 101 % of control and the T/C (dose: 200.0 mg/kg/injection, schedule: Q01DX005 (ip), vehicle: saline) is reported as 112 % of control.

O=C1CC(C2(c3ccc4c(c3)OCO4)SCCCS2)CO1 (stereo unspecified) was tested, and the T/C [4] was 101 % of control, the T/C [5] was 106 % of control and the T/C [6] was 99 % of control.
